Assay results taken from US5814610A, “Osteogenic growth oligopeptides and pharmaceutical compositions containing them” (Yissum Research Development Company of the Hebrew …, priority 1993, dated 1998).
No end group written: not given here.

Key:
[1] = Kharchenko et al.; cited from earlier work
[2] = tested on: osteoblastic MC3T3E1 cells; test: Proliferative activity: osteoblastic MC3T3E1 cell number in vitro; format: cell-based; settings: for Proliferative effect on cell number (magnitude, compared with positive sOGP control): MC3T3E1 cells
NIH 3T3 fibroblasts = test: Proliferative activity: fibroblastic NIH 3T3 cell number in vitro; format: cell-based; settings: NIH 3T3 cells

| Substance | Analgesic and opioid activity [1] | Peptide concentration of peak proliferative activity ([2]; MC3T3E1 cell number) | Proliferative effect on cell number (magnitude, compared with positive sOGP control) [2] | Proliferative effect on cell number (magnitude, compared with positive sOGP control) (NIH 3T3 fibroblasts) | Proliferative activity, Percent Activity of Full Length Peptide [OGP(1-14)], Mean ([2]; MC3T3 E1 cells, mean of experiments) | Proliferative activity, Percent Activity of Full Length Peptide [OGP(1-14)], Mean (NIH 3T3 fibroblasts; mean of experiments) |
| --- | --- | --- | --- | --- | --- | --- |
| Tyr--Gly--Phe--Gly--Gly (YGFGG; printed: Tyr--Gly--Phe--Gly--Gly) [OGP(10-14)] | analgesic and opiod activity |  |  |  |  |  |
| Ac-MYGFGG [Ac-Met^0 [OGP(10-14)], Ac--Met--Tyr--Gly--Phe--Gly--Gly] |  | 10^-13 M | closely similar to that of positive sOGP controls | closely similar to that of positive sOGP controls |  |  |
| Gly--Gly [OGP(13-14)] |  |  | did not affect | did not affect | 0% | 0% |
